Results as given in patent US20220354805A1, “Cannabidiol (CBD) as Chemical for Treating Aging-related Degenerative Diseases and Promoting Health Aging” (Hemix Biotech Limited, priority 2021, published 2022).

Key:
[1] = test system: Human mesenchymal stem cells (MSCs); test: Senolytic effect in MSCs upon irradiation induced senescence (relative cell viability); format: cell-based; settings: 24-hour treatment, normalized to non-irradiated control
Description: Human mesenchymal stem cells (MSCs) were counted by using LUNA-II Automated Cell Counter. 1.0×10^5 cells were seeded to each well of 6-well plate and cultured for 24 hours. The cells were divided into two groups: non-irradiated and irradiated group. The irradiated group received gamma irradiation by irradiator. 10 Gy was the dosage of irradiation used. 24 hours after the irradiation, the non-irradiated and irradiated group were treated with different concentration of chemical. After 24-hour treatment, the cells were counted again using LUNA-II Automated Cell Counter. The population doubling level (PDL) which reflects the proliferation rate of cells was calculated by the formula: n=3.32×(logUCY−logI)+X, where n=the PDL number, UCY=the cell yield at that time point, I=the initial cell number, and X=the doubling level of the cells used to initiate the subculture being quantitated.
The relative cell viability was calculated by normalizing each sample to non-irradiated control sample. […] As CBD selectively killed senescent MSCs while keeping proliferating MSCs unharmed, it was discovered to be a novel senolytic. Referring to FIG. 12b, Western blotting was carried to investigate the mechanism behind CBD's senolytic effect. […] While as proliferating and senescent MSCs responded differently in phosphorylated akt level.

[2] = test system: Caenorhabditis elegans; test: Lifespan analysis of Caenorhabditis elegans; format: in vivo; settings: C. elegans
Description: In step of analyzing the lifespan of Caenorhabditis elegans, for chemical treatment in Caenorhabditis elegans, chemical was added to the nematode growth medium (NGM) dishes. The NGM with agarose was autoclaved and then cooled down to below 65° C. The different concentrations of chemical were added to NGM. The NGM was then poured into 60 mm dishes and incubated at room temperature overnight. The solidified NGM dishes were stored at 4° C. Escherichia coli OP50 strain was used as the food source for C. elegans. A single colony of OP50 was incubated in 200 mL of lysogeny broth (LB) medium at 37° C. overnight. The OP50 was then killed by incubation at 65° C. for […]. The dead OP50 was spread throughout the surface of the NGM dishes. The NGM dishes with dead OP50 and CBD were stored at 4° C. for up to 2 weeks. The synchronization of C. elegans was carried out by the bleaching method. 20 L4 larvae were picked to each 60 mm dish with different concentrations of chemical and cultured at 20° C. They were monitored every day, and the number of living, dead and missing C. elegans were recorded. The C. elegans were transferred to fresh Petri dishes every 2 days to separate the target worms from their offspring and to ensure if they had enough food source. 10-20 μM of CBD was identified to be the optimal dosage for extending the lifespan of C. elegans.

[3] = test system: LMNA^G609G/G609G MEFs; test: Relative nuclear circularity of MEFs; format: cell-based, mouse; settings: 12-day CBD treatment, vs control
Description: In the step of determining the relative nuclear circularity, the primary mouse embryonic fibroblasts (MEFs) at passage 3 were seeded and cultured in chamber slides. Nuclei were stained using DAPI or LMNA/C antibodies. The fluorescence images were captured using confocal microscopy. The perimeter and area of the individual nucleus were measured using software CellProfiler. Relative nuclear circularity was calculated using the formula: […]
A value of 1 in relative nuclear circularity indicates a perfect circle. Nuclei with relative nuclear circularity closer to 0 indicate they are more irregularly shaped.

[4] = test system: ATF5, CEBPα and TRIB3 in skin of LMNA^G609G/G609G mice; test: Immunofluorescence staining of mouse skin; format: in vivo; settings: CBD treated premature aging mice
Description: The tissue sections were washed twice with PBS and incubated in PBSTr (0.1% Triton X-100 in PBS) for 10 minutes. Then the cells were blocked with 5% fetal bovine serum (FBS) in PBSTr for 1 hour at room temperature. Primary antibodies diluted in 5% FBS in PBSTr were added and incubated at 4° C. overnight. On the following day, the cells were washed three times using PBSTr, incubation for 10 minutes each time. Secondary antibodies diluted in 5% FBS in PBSTr were added and incubated at room temperature for 1 hour. The cells were again washed three times using PBSTr, followed by PBS for two times. The slides were mounted with SlowFade Gold antifade reagent. Then the slides were ready to be analyzed under a confocal microscope.

[5] = test system: wildtype and LMNA^G609G/G609G MEFs; test: Senescence-associated beta-galactosidase staining of MEFs; format: cell-based, mouse; settings: vs control cells
Description: In the step of determining the senescence lever and optimal concentration, the primary mouse embryonic fibroblasts (MEFs) at passage 3 were seeded and cultured in chamber slides. The slides were washed twice with ice-cold phosphate buffered saline (PBS). Using senescence-associated beta-galactosidase staining kit, the cells were fixed for 10 minutes with provided paraformaldehyde and washed twice with PBS. The slides were then incubated with the staining solution at 37° C. overnight. On the following day, the slides were washed twice with PBS and mounted with 40% glycerol in PBS. The stained cells were observed under a light microscope. Senescent cells were stained blue while proliferating cells were unstained. The percentage of senescent cells was quantified by counting the number of stained and unstained cells.

[6] = test system: liver of LMNA^G609G/G609G mice; test: Senescence-associated beta-galactosidase staining of mouse liver; format: in vivo; settings: CBD treated LMNA^G609G/G609G mice
Description: In the step of study the histology of mouse skin and liver, the mice were sacrificed by cervical dislocation under anesthesia by intraperitoneal (IP) injection of 100 mg/kg ketamine and 16 mg/kg xylazine in sterile water. Major organs, including skin, muscle, intestine, kidney, spleen, liver, lung, heart, aorta, were collected. Half of the tissues were snap-frozen in liquid nitrogen and stored at −80° C. for extraction of proteins and RNA. Another half of the tissues were fixed in 4% paraformaldehyde (PFA) in PBS and shook at 4° C. overnight. For paraffin wax sections, the fixed tissues were incubated in 70% ethanol and shook at 4° C. overnight. Followed by stepwise dehydration of tissues in 90%, 95%, 100%, and 100% ethanol for 1 hour each. Then the tissues were incubated in 50% xylene and 50% ethanol for 30 to 40 minutes and transferred to 100% xylene for 10 to 15 minutes. The tissues were then incubated in wax for 30 minutes and transferred to new wax for 3 times. Then the tissues were placed in the wax inside a vacuum chamber overnight. On the following day, the tissues were embedded into paraffin blocks and sectioned into slides with 6 μm in thickness. After the tissue sections were dried, they were incubated in xylene solution twice each for 5 minutes. […]

## C=C(C)[C@@H]1CCC(C)=C[C@H]1c1c(O)cc(CCCCC)cc1O [CBD, Cannabidiol]
[1]; 10 Gy gamma irradiation
  relative cell viability, irradiated senescent MSCs: significantly decrease the cell viability
[1]
  relative cell viability, non-irradiated control MSCs: significantly increase the cell viability
[2]; 10 or 20 μM CBD
  maximum lifespan increase: 8-12.5%
  median lifespan increase: 55-61.5%
[2]; CBD in NGM dishes, 20° C.
  optimal dosage for extending the lifespan: 10 to 20 µM
[3]
  relative nuclear circularity: significantly increased the relative nuclear circularity
[4]
  ATF5 protein level decrease in skin: reversed
  CEBPα protein level decrease in skin: reversed
  TRIB3 protein level decrease in skin: reversed
[5]; 10 μM CBD, 8 days
  senescence levels: decrease in senescence levels
[5]; 50 μM CBD, 4 days
  senescence levels (toxicity effect): increase in senescence levels
[6]
  increase of senescent cells in liver: rescued
